Consider 24 compounds from patent US11440913B2, “Aminoimidazopyridazines as kinase inhibitors” (BRISTOL-MYERS SQUIBB COMPANY, priority 2017, dated 2022).

Where a name gives a salt, the structure may show the parent alone. Read-outs that look alike come from different tables or passages of the source.

In assay [1] the target is His-GST-TVMV-hRIPK1(1-324) (Homo sapiens (Human), UniProt Q13546). Put plainly: RIPK1 HTRF Binding Assay. The conditions noted are these: HTRF binding, 1 h at rt; read-out: RIPK1 (IC50). In outline: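 HTRF probe-displacement binding: 1 nM His-GST-TVMV-hRIPK1(1-324) (baculovirus construct), 90.6 nM probe, 0.2 nM anti-GST-Tb in 20 mM HEPES, 10 mM MgCl2, 0.015% Brij-35, 4 mM DTT, 0.05 mg/mL BSA. Incubated 1 h at rt; FRET 520/495 nm ratio, inhibition relative to DMSO-only wells.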
Sequence of His-GST-TVMV-hRIPK1(1-324) (Q13546 1-324): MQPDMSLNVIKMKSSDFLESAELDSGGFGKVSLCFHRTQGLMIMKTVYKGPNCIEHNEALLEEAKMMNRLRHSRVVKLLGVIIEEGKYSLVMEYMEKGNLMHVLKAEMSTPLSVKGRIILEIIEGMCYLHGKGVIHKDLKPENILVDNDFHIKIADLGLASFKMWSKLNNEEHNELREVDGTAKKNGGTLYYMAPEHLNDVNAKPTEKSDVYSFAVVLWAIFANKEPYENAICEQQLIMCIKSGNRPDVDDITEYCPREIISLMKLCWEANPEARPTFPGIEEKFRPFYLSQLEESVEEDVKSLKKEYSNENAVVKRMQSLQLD
(In TR-FRET formats the signal depends on donor and acceptor labels being close together.)

The test system of assay [2] is MLKL phosphorylation in HT29-L23 human colorectal adenocarcinoma cells. Put plainly: MLKL Phosphorylation High-Content Assay. Format: cell-based. The conditions noted are these: 6 h, necroptosis induced with TNFα, SMAC mimetic and Z-VAD, read-out: pMLKL (IC50). The method in brief: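 HT29-L23 cells pretreated 30 min at 37 °C with compound (6.25 to 0.106 μM final), then necroptosis induced with TNFα 35 ng/mL, SMAC mimetic 700 nM and Z-VAD 140 nM for 6 h. Fixed cells immunostained for MLKL pS358 and imaged; IC50 and Ymax from 4-parameter logistic fit.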

Take `CC(=O)Nc1cn2nc(-c3cc(C(=O)NCc4cc(OC(F)(F)F)ccc4F)c(C)nc3C)ccc2n1` [Example 81, 5-{2-acetamidoimidazo[1,2-b]pyridazin-6-yl}-N-{[2-fluoro-5-(trifluoromethoxy)phenyl]methyl}-2,6-dimethylpyridine-3-carboxamide]: the 50% inhibitory concentration (IC50) – broadly, the concentration that inhibits the measured activity by half – amounted to 5 nM in assay [1] and 2 nM in assay [2] (Homo sapiens).

Consider `CC(=O)Nc1cn2nc(-c3cc(C(=O)NCC[C@H](O)c4ccc(Cl)cc4)c(C)nc3C)ccc2n1` [Example 82, N-[(3S)-3-(4-chlorophenyl)-3-hydroxypropyl]-5-{2-acetamidoimidazo[1,2-b]pyridazin-6-yl}-2,6-dimethylpyridine-3-carboxamide], for which the 50% inhibitory concentration (IC50) worked out at 21 nM in assay [1] and 18 nM in assay [2] (Homo sapiens).

Turning to `CC(=O)Nc1cn2nc(-c3cc(C(=O)NCc4ccccc4OCC4CC4)c(C)nc3C)ccc2n1` [Example 83, N-{[2-(cyclopropylmethoxy)phenyl]methyl}-5-{2-acetamidoimidazo[1,2-b]pyridazin-6-yl}-2,6-dimethylpyridine-3-carboxamide], the concentration for half-maximal inhibition (IC50) in assay [1] is 5 nM; in assay [2] it was 7 nM.

For the compound `CC(=O)Nc1cn2nc(-c3cc(C(=O)NCc4cccnc4OCC4CCCC4)c(C)nc3C)ccc2n1` [Example 84, N-{[2-(cyclopentylmethoxy)pyridin-3-yl]methyl}-5-{2-acetamidoimidazo[1,2-b]pyridazin-6-yl}-2,6-dimethylpyridine-3-carboxamide], the IC50 turned out to be 19 nM in assay [1] and 26 nM in assay [2] (Homo sapiens).

As to `CC(=O)Nc1cn2nc(-c3cc(C(=O)NCc4ccccc4OCC4CCCC4)c(C)nc3C)ccc2n1` [Example 85, N-{[2-(cyclopentylmethoxy)phenyl]methyl}-5-{2-acetamidoimidazo[1,2-b]pyridazin-6-yl}-2,6-dimethylpyridine-3-carboxamide], the figures for the concentration for half-maximal inhibition (IC50) in assay [1] and in assay [2] (Homo sapiens) were 4 nM and 12 nM, respectively.

`CC(=O)Nc1cn2nc(-c3cc(C(=O)NCc4cc(F)cc(F)c4OCC4CC4)c(C)nc3C)ccc2n1` [Example 87, N-{[2-(cyclopropylmethoxy)-3,5-difluorophenyl]methyl}-5-{2-acetamidoimidazo[1,2-b]pyridazin-6-yl}-2,6-dimethylpyridine-3-carboxamide]: the half-maximal inhibitory concentration (IC50) in assay [1] and in assay [2] (Homo sapiens) was 3 nM throughout.

With `CC(=O)Nc1cn2nc(-c3cc(C(=O)NCc4cccc(OC(F)(F)F)c4)c(C)nc3C)ccc2n1` [Example 88, 5-{2-acetamidoimidazo[1,2-b]pyridazin-6-yl}-2,6-dimethyl-N-{[3-(trifluorometh-oxy)phenyl]methyl}pyridine-3-carboxamide], the half-inhibitory concentration (IC50) in assay [1] worked out at 25 nM; in assay [2] (Homo sapiens), 42 nM.

On to `CC(=O)Nc1cn2nc(-c3cc(C(=O)NCc4ccccc4OC(F)(F)F)c(C)nc3C)ccc2n1` [Example 89, 5-{2-acetamidoimidazo[1,2-b]pyridazin-6-yl}-2,6-dimethyl-N-{[2-(trifluoro-methoxy)phenyl]methyl}pyridine-3-carboxamide], for which the figures for the concentration for half-maximal inhibition (IC50) in assay [1] and in assay [2] (Homo sapiens) were 38 nM and 88 nM, respectively.

As to `CC(=O)Nc1cn2nc(-c3cc(C(=O)NCc4cc(F)cc(F)c4OCC4CCCC4)c(C)nc3C)ccc2n1` [Example 90, N-{[2-(cyclopentylmethoxy)-3,5-difluorophenyl]methyl}-5-{2-acetamidoimidazo[1,2-b]pyridazin-6-yl}-2,6-dimethylpyridine-3-carboxamide], the IC50 in assay [1] was determined as 5 nM; in assay [2] (Homo sapiens), 3 nM.

In the case of `Cc1nc(C)c(-c2ccc3nc(NC(=O)CO)cn3n2)cc1C(=O)NCc1cc(F)cc(F)c1O[C@H]1CCOC1` [Example 91, N-({3,5-difluoro-2-[(3S)-oxolan-3-yloxy]phenyl}methyl)-5-[2-(2-hydroxy-acetamido)imidazo[1,2-b]pyridazin-6-yl]-2,6-dimethylpyridine-3-carboxamide, TFA], the 50% inhibitory concentration (IC50) came to 61 nM in assay [1] and 442 nM in assay [2] (Homo sapiens).

For the compound `Cc1nc(C)c(-c2ccc3nc(NC(=O)CO)cn3n2)cc1C(=O)N[C@H](C)c1cc(C(F)(F)F)ccc1F` [Example 92, N-[(1R)-1-[2-fluoro-5-(trifluoromethyl)phenyl]ethyl]-5-[2-(2-hydroxyacet-amido)imidazo[1,2-b]pyridazin-6-yl]-2,6-dimethylpyridine-3-carboxamide], the IC50 in assay [1] came out at 48 nM; in assay [2] (Homo sapiens), 127 nM.

In the case of `[2H]C([2H])(NC(=O)c1cc(-c2ccc3nc(NC(=O)CO)cn3n2)c(C)nc1C)c1cc(C(F)(F)F)ccc1F` [Example 93, N-{[2-fluoro-5-(trifluoro-methyl)phenyl](deutero)methyl}-5-[2-(2-hydroxy-acetamido)imidazo[1,2-b]pyridazin-6-yl]-2,6-dimethylpyridine-3-carboxamide], the figures for the half-inhibitory concentration (IC50) in assay [1] and in assay [2] (Homo sapiens) were 50 nM and 129 nM, respectively.

Take `Cc1nc(C)c(-c2ccc3nc(NC(=O)CO)cn3n2)cc1C(=O)NCc1cc(C(F)(F)F)ccc1F` [Example 94, N-{[2-fluoro-5-(trifluoromethyl)phenyl]methyl}-5-[2-(2-hydroxyacet-amido)imidazo[1,2-b]pyridazin-6-yl]-2,6-dimethylpyridine-3-carboxamide]: the IC50 in assay [1] is 77 nM; in assay [2] (Homo sapiens), 87 nM.

As for `Cc1nc(C)c(-c2ccc3nc(NC(=O)CO)cn3n2)cc1C(=O)N[C@H](C)c1cc(OC(F)(F)F)ccc1F` [Example 95, N-[(1R)-1-[2-fluoro-5-(trifluoromethoxy)phenyl]ethyl]-5-[2-(2-hydroxyacet-amido)imidazo[1,2-b]pyridazin-6-yl]-2,6-dimethylpyridine-3-carboxamide], the IC50 stood at 30 nM in assay [1] and 68 nM in assay [2] (Homo sapiens).

Take `COc1ncc(-c2ccc3nc(NC(C)=O)cn3n2)cc1C(=O)NCc1cc(F)cc(F)c1OC1CCOC(C)C1` (stereo not drawn) [Example 96, N-({3,5-difluoro-2-[(2-methyloxan-4-yl)oxy]phenyl}methyl)-5-{2-acetamidoimidazo[1,2-b]pyridazin-6-yl}-2-methoxypyridine-3-carboxamide]: the IC50 in assay [1] came out at 10 nM; in assay [2] (Homo sapiens), 25 nM.

In the case of `COc1ncc(-c2ccc3nc(NC(C)=O)cn3n2)cc1C(=O)NCc1cc(F)cc(F)c1OCC1CCC1` [Example 97, N-{[2-(cyclobutylmethoxy)-3,5-difluorophenyl]methyl}-5-{2-acetamidoimidazo[1,2-b]pyridazin-6-yl}-2-methoxypyridine-3-carboxamide], the 50% inhibitory concentration (IC50) in assay [1] and in assay [2] (Homo sapiens) was 2 nM in each case.

With `COc1ncc(-c2ccc3nc(NC(C)=O)cn3n2)cc1C(=O)NCc1cc(F)cc(F)c1O[C@H]1CCOC1` [Example 98, N-({3,5-difluoro-2-[(3S)-oxolan-3-yloxy]phenyl}methyl)-5-{2-acetamidoimidazo[1,2-b]pyridazin-6-yl}-2-methoxypyridine-3-carboxamide], the figures for the IC50 in assay [1] and in assay [2] (Homo sapiens) were 2 nM and 39 nM, respectively.

On to `COc1ncc(-c2ccc3nc(NC(C)=O)cn3n2)cc1C(=O)NCc1cc(F)cc(F)c1OC1CCCOC1` (stereo not drawn) [Example 99, N-{[3,5-difluoro-2-(oxan-3-yloxy)phenyl]methyl}-5-{2-acetamidoimidazo[1,2-b]pyridazin-6-yl}-2-methoxypyridme-3-carboxamide], for which the IC50 in assay [1] was determined as 6 nM; in assay [2], 24 nM.

In the case of `COc1ccc(F)c(CNC(=O)c2cc(-c3ccc4nc(NC(C)=O)cn4n3)cnc2OC)c1` [Example 100, 5-{2-acetamidoimidazo[1,2-b]pyridazin-6-yl}-N-[(2-fluoro-5-methoxyphenyl)methyl]-2-methoxypyridine-3-carboxamide], the values for the IC50 in assay [1] and in assay [2] (Homo sapiens) were 56 nM and 203 nM, respectively.

In the case of `COc1ncc(-c2ccc3nc(NC(C)=O)cn3n2)cc1C(=O)NCc1c(F)cccc1OCC(F)(F)F` [Example 102, 5-{2-acetamidoimidazo[1,2-b]pyridazin-6-yl}-N-{[2-fluoro-6-(2,2,2-trifluoroethoxy)phenyl]methyl}-2-methoxypyridine-3-carboxamide], the 50% inhibitory concentration (IC50) in assay [1] worked out at 7 nM; in assay [2] (Homo sapiens) it was 10 nM.

As for `COc1ncc(-c2ccc3nc(NC(C)=O)cn3n2)cc1C(=O)NCc1cc(F)cc(F)c1OC1CC(C)OC(C)C1` (stereo not drawn) [Example 103, N-({2-[(2,6-dimethyloxan-4-yl)oxy]-3,5-difluorophenyl}methyl)-5-{2-acetamidoimidazo[1,2-b]pyridazin-6-yl}-2-methoxypyridine-3-carboxamide], the IC50 in assay [1] amounted to 51 nM; in assay [2] (Homo sapiens), 188 nM.

For `COc1ncc(-c2ccc3nc(NC(C)=O)cn3n2)cc1C(=O)N[C@H](C)c1ccccc1C(F)(F)F` [Example 104, 5-{2-acetamidoimidazo[1,2-b]pyridazin-6-yl}-2-methoxy-N-[(1R)-1-[2-(trifluoromethyl)phenyl]ethyl]pyridine-3-carboxamide], the results for the IC50 in assay [1] and in assay [2] (Homo sapiens) were 36 nM and 73 nM, respectively.

For the compound `COc1ncc(-c2ccc3nc(NC(C)=O)cn3n2)cc1C(=O)NCc1cc(F)ccc1OCC(F)(F)F` [Example 105, 5-{2-acetamidoimidazo[1,2-b]pyridazin-6-yl}-N-{[5-fluoro-2-(2,2,2-trifluoroethoxy)phenyl]methyl}-2-methoxypyridine-3-carboxamide], the results for the half-inhibitory concentration (IC50) in assay [1] and in assay [2] (Homo sapiens) were 5 nM and 17 nM, respectively.

For the compound `COc1ncc(-c2ccc3nc(NC(C)=O)cn3n2)cc1C(=O)N[C@@H](C)c1cc(C(F)(F)F)ccc1F` [Example 106, 5-{2-acetamidoimidazo[1,2-b]pyridazin-6-yl}-N-[(1S)-1-[2-fluoro-5-(trifluoromethyl)phenyl](2,2,2-deutero)ethyl]-2-methoxypyridine-3-carboxamide], the IC50 in assay [1] came out at 84 nM; in assay [2], 95 nM.
